# Paper PMC3040889, “Synthesis and Biological Evaluation of Delavayin-C” (Indian Journal of Pharmaceutical Sciences, 2008)
# Residues, ends and D or L forms follow the SMILES beside them.
# Key:
# Format in all cases: cell-based
# Staphylococcus aureus [1] = experiment: microbe, parasite or virus in culture; conditions: disc diffusion, 50 μg/ml
# Procedure: (§1) The synthesized cyclic heptapeptide was screened in vitro for its antibacterial and antifungal activity by using disc diffusion method and tube dilution technique. The antibacterial activity was determined against four bacterial species (B. subtilis, S. aureus, E. coli and P. aeruginosa) and antifungal activity against Candida albican. In the disc diffusion method, the activity studies were carried out according to modified Kirby-Bauer method. Benzyl penicillin and fluconazole were used as standards against bacterial and fungal strains, respectively at a concentration of 50 μg/ml. Nutrient broth and Sabourds agar were used as a medium and dimethylformamide (DMF) was used as a solvent control for carrying out the activity. After preparation of the disc, allowed to stand for 24 h at 37°. The zone of inhibition, observed around the disks after incubation, was measured.
# Candida albicans [2] = experiment: microbe, parasite or virus in culture; conditions: disc diffusion, 50 μg/ml
# Procedure: as §1
# Psuedomonas aeruginosa [3] = experiment: microbe, parasite or virus in culture; conditions: disc diffusion, 50 μg/ml
# Procedure: as §1
# Escherichia coli [4] = experiment: microbe, parasite or virus in culture; conditions: disc diffusion, 50 μg/ml
# Procedure: as §1
# Bacillus subtilis [5] = experiment: microbe, parasite or virus in culture; conditions: disc diffusion, 50 μg/ml
# Procedure: as §1
# Staphylococcus aureus [6] = experiment: tube dilution technique for minimum inhibitory concentration; design: key: (+) indicates presence of growth (no activity); –: absence of growth; conditions: S. auereus, nutrient broth, 37° for 24 h, turbidity
# Procedure: (§2) Compound inhibiting growth of microorganisms was further tested for minimum inhibitory concentration (MIC). A solution of the compound was prepared in DMF and a series of doubling dilutions prepared with sterile pipettes. To each of a series of sterile stoppered test tubes, a standard volume of nutrient broth medium was added. A control tube containing no antimicrobial agent was included. The inoculum consisting of an overnight broth culture of microorganisms was added to separate tubes. The tubes were incubated at 37° for 24 h and examined for turbidity. The tube with highest dilution showing no turbidity was the one containing compound with MIC.
# Candida albicans [7] = experiment: as above; design: key: (+) indicates presence of growth (no activity); –: absence of growth; conditions: C. albicans, broth medium, 37° for 24 h, turbidity
# Procedure: as §2
# Psuedomonas aeruginosa [8] = experiment: as above; design: key: (+) indicates presence of growth (no activity); –: absence of growth; conditions: P. aeruginosa, nutrient broth, 37° for 24 h, turbidity
# Procedure: as §2
# Escherichia coli [9] = experiment: as above; design: key: (+) indicates presence of growth (no activity); –: absence of growth; conditions: E. coli, nutrient broth, 37° for 24 h, turbidity
# Procedure: as §2
# Bacillus subtilis [10] = experiment: as above; design: key: (+) indicates presence of growth (no activity); –: absence of growth; conditions: B. subtilis, nutrient broth, 37° for 24 h, turbidity
# Procedure: as §2
# [11] = 24 h at 37°, DMF solvent control
compound,measurement,setting,value
"CC1(C)S[C@@H]2[C@H](NC(=O)Cc3ccccc3)C(=O)N2[C@H]1C(=O)O [Benzyl Penicillin, Benzyl penicillin, reference compound]",zone of inhibition at 50 µg/mL,"Staphylococcus aureus [1]; Staphylococcus aureus, 24 h at 37°, DMF solvent control, read-out: Diameter of zone of inhibition, S. auereus",25 mm
same,"Diameter of zone of inhibition, C. albicans",Candida albicans [2]; [11],-
same,zone of inhibition at 50 µg/mL,"Psuedomonas aeruginosa [3]; Pseudomonas aeruginosa, 24 h at 37°, DMF solvent control, read-out: Diameter of zone of inhibition, P. aeruginosa",17 mm
same,zone of inhibition at 50 µg/mL,"Escherichia coli [4]; Escherichia coli, 24 h at 37°, DMF solvent control, read-out: Diameter of zone of inhibition, E. coli",16 mm
same,zone of inhibition at 50 µg/mL,"Bacillus subtilis [5]; Bacillus subtilis, 24 h at 37°, DMF solvent control, read-out: Diameter of zone of inhibition, B. Subtilis",15 mm
"CC(C)[C@@H]1NC(=O)[C@@H]2CCCN2C(=O)[C@H](Cc2ccc(O)cc2)NC(=O)[C@H](Cc2ccc(O)cc2)NC(=O)[C@H](Cc2ccc(O)cc2)NC(=O)CNC(=O)[C@@H]2CCCN2C1=O [Compound, delavayin-C, cyclo(gly-tyr-tyr-tyr-pro-val-pro)] (cyclo(GYYYPVP))",Presence or absence of growth,Staphylococcus aureus [6]; 1.56 μg/ml,+
same,Presence or absence of growth,Staphylococcus aureus [6]; 3.13 μg/ml,+
same,Presence or absence of growth,Staphylococcus aureus [6]; 6.25 μg/ml,+
same,Presence or absence of growth,Staphylococcus aureus [6]; 12.5 μg/ml,+
same,Presence or absence of growth,Staphylococcus aureus [6]; 25 μg/ml,+
same,Presence or absence of growth,Staphylococcus aureus [6]; 50 μg/ml,+
same,Presence or absence of growth,Candida albicans [7]; 1.56 μg/ml,+
same,Presence or absence of growth,Candida albicans [7]; 3.13 μg/ml,+
same,Presence or absence of growth,Candida albicans [7]; 6.25 μg/ml,+
same,Presence or absence of growth,Candida albicans [7]; 12.5 μg/ml,+
same,Presence or absence of growth,Candida albicans [7]; 25 μg/ml,+
same,Presence or absence of growth,Candida albicans [7]; 50 μg/ml,–
same,Presence or absence of growth,Candida albicans [7]; 100 μg/ml,–
same,Presence or absence of growth,Psuedomonas aeruginosa [8]; 1.56 μg/ml,+
same,Presence or absence of growth,Psuedomonas aeruginosa [8]; 3.13 μg/ml,+
same,Presence or absence of growth,Psuedomonas aeruginosa [8]; 6.25 μg/ml,+
same,Presence or absence of growth,Psuedomonas aeruginosa [8]; 12.5 μg/ml,+
same,Presence or absence of growth,Psuedomonas aeruginosa [8]; 25 μg/ml,+
same,Presence or absence of growth,Psuedomonas aeruginosa [8]; 50 μg/ml,+
same,Presence or absence of growth,Psuedomonas aeruginosa [8]; 100 μg/ml,–
same,Presence or absence of growth,Escherichia coli [9]; 1.56 μg/ml,+
same,Presence or absence of growth,Escherichia coli [9]; 3.13 μg/ml,+
same,Presence or absence of growth,Escherichia coli [9]; 6.25 μg/ml,+
same,Presence or absence of growth,Escherichia coli [9]; 12.5 μg/ml,+
same,Presence or absence of growth,Escherichia coli [9]; 25 μg/ml,+
same,Presence or absence of growth,Escherichia coli [9]; 50 μg/ml,+
same,Presence or absence of growth,Escherichia coli [9]; 100 μg/ml,–
same,Presence or absence of growth,Bacillus subtilis [10]; 1.56 μg/ml,+
same,Presence or absence of growth,Bacillus subtilis [10]; 3.13 μg/ml,+
same,Presence or absence of growth,Bacillus subtilis [10]; 6.25 μg/ml,+
same,Presence or absence of growth,Bacillus subtilis [10]; 12.5 μg/ml,+
same,Presence or absence of growth,Bacillus subtilis [10]; 25 μg/ml,+
same,Presence or absence of growth,Bacillus subtilis [10]; 50 μg/ml,–
same,Presence or absence of growth,Bacillus subtilis [10]; 100 μg/ml,–
same,activity against S. aureus when compared with standard drug benzyl penicillin (in words),Staphylococcus aureus [1],moderate activity
same,"Diameter of zone of inhibition, S. auereus",Staphylococcus aureus [1]; [11],21 mm
same,inhibition of growth against Candida albicans (in words),Candida albicans [2],moderate inhibition of growth
same,"Diameter of zone of inhibition, C. albicans",Candida albicans [2]; [11],18 mm
same,activity against P. aeruginosa when compared with standard drug benzyl penicillin (in words),Psuedomonas aeruginosa [3],less activity
same,"Diameter of zone of inhibition, P. aeruginosa",Psuedomonas aeruginosa [3]; [11],11 mm
same,activity against E. coli when compared with standard drug benzyl penicillin (in words),Escherichia coli [4],less activity
same,"Diameter of zone of inhibition, E. coli",Escherichia coli [4]; [11],10 mm
same,activity against B. subtilis when compared with standard drug benzyl penicillin (in words),Bacillus subtilis [5],moderate activity
same,"Diameter of zone of inhibition, B. Subtilis",Bacillus subtilis [5]; [11],15 mm
"OC(Cn1cncn1)(Cn1cncn1)c1ccc(F)cc1F [Fluconazole, fluconazole, reference compound]","Diameter of zone of inhibition, S. auereus",Staphylococcus aureus [1]; [11],-
same,zone of inhibition at 50 µg/mL,"Candida albicans [2]; Candida albicans, 24 h at 37°, DMF solvent control, read-out: Diameter of zone of inhibition, C. albicans",20 mm
same,"Diameter of zone of inhibition, P. aeruginosa",Psuedomonas aeruginosa [3]; [11],-
same,"Diameter of zone of inhibition, E. coli",Escherichia coli [4]; [11],-
same,"Diameter of zone of inhibition, B. Subtilis",Bacillus subtilis [5]; [11],-
